Values quoted from earlier work as cited in patent US8399704B2, “Methods for salt production” (Colgate-Palmolive Company, priority 2008, dated 2013).

Settings: room temperature, natural partial pressure (3.5×10^−4 atmosphere)

maximum concentration of carbon dioxide in water: about 1.2×10^−5 M
Compound: O=C=O [Carbon dioxide]
